Experimental data reported in patent publication EP1681292A1, “3-Amino-6-aryl(or 6-heteroaryl)-thieno¬2,3-b|pyridin-2-carboxylic acid amides, pharmaceutical compositions comprising the said and their use as inhibitors of TNFalpha release” (IBFB Pharma GmbH, priority 2005, dated 2006).

Each compound was assayed on TNFα-Freisetzung (assay: Inhibition of TNFα release after LPS stimulation of human whole blood (ELISA)). Conditions: human whole blood diluted 1:5 with RPMI 1640, LPS (Salmonella abortus equi) 1 µg/ml, 24 h at 37°C, TNFα in supernatant by ELISA; read-out: Hemmung der TNFα-Freisetzung, EC50.
Format: cell-based
Description: Methodenbeschreibung der Hemmung der TNFα Freisetzung nach LPS Stimulation von humanem Vollblut
Die Stimulierung isolierter Leukozyten für die Freisetzung von Zytokinen kann auf verschiedenen Wegen erfolgen. Lipopolysaccharide (LPS) stellen einen Stimulus für die Untersuchung der Freisetzung von TNFα dar. LPS ist Bestandteil bakterieller Zellwände und wird beim Abtöten der Bakterien (durch Antibiotika oder das natürliche Immunsystem) freigesetzt. LPS stimuliert insbesondere die Aktivität phagozytierender Leukozyten (Gewebsmakrophagen, Granulozyten, Monozyten) und verursacht die Infiltration von Leukozyten vom peripheren Blut in das betroffene Gewebe. Ein Zytokin von besonderer Bedeutung für diese Mechanismen ist TNFα, das in großen Mengen durch die betroffenen Zellen sezerniert wird. Hauptquelle dabei sind Monozyten und Makrophagen. TNFα initiiert und prolongiert den Entzündungsprozess im Zusammenspiel mit anderen Mediatoren.
Für die Untersuchung des Effektes auf die LPS-induzierte TNFα-Freisetzung wurde eine Methode verwendet, die von MARX et al. (Marx D, Tassabehji M, Heer S, Hüttenbrink KB, Szelenyi I (2002) Pulmonary Pharmacology & Therapeutics 15 7-15) beschrieben wurde. Die Methodenbeschreibung in verkürzter Darstellung: Humanes Blut verschiedener Spendern wird durch Zusatz von 10 mM Na-Citrat ungerinnbar gemacht und 1:5 mit RPMI 1640 Zellkulturmedium verdünnt. Die Verbindungen der allgemeinen Formel 1 sowie die Kontrollsubstanzen (z.B. Dexamethason) wurden den Blutproben in verschiedenen Konzentrationen hinzugefügt. 15 Minuten später wurden die Leukozyten durch Zusatz von Lipopolysacchariden (LPS) (aus Salmonella abortus equi) in einer Endkonzentration von 1 µg/ml stimuliert. Nach Inkubation der Testansätze für 24 Stunden bei 37°C. und unter 5% CO2 in wassergesättigter Luft, wurde das Blut zentrifugiert und die Konzentration an TNFα im zellfreien Überstand unter Verwendung eines käuflichen ELISA (BD Biosciences) nach Angaben des Herstellers exakt vermessen.

EC50, < 5 nM:
CSc1ccc(-c2cc(C)c3c(N)c(C(N)=O)sc3n2)cc1 [3-Amino-4-methyl-6-(4-methylthio-phenyl)-thieno[2,3-b]pyridin-2-carbonsäureamid]
NC(=O)c1sc2nc(-c3cccs3)cc(C(F)(F)F)c2c1N [3-Amino-6-(2-thienyl)-4-trifluormethyl-thieno[2,3-b]pyridin-2-carbonsäureamid]
Cc1cc(-c2ccc3c(c2)OCCO3)nc2sc(C(N)=O)c(N)c12 [3-Amino-6-(3,4-dioxoethylen-phenyl)-4-methyl-thieno[2,3-b]pyridin-2-carbonsäureamid]
NC(=O)c1sc2nc(-c3ccc4c(c3)OCCO4)cc(C(F)(F)F)c2c1N [3-Amino-6-(3,4-dioxoethylen-phenyl)-4-trifluormethyl-thieno[2,3-b]pyridin-2-carbonsäureamid]
Cc1cc(-c2ccc(Cl)cc2)nc2sc(C(N)=O)c(N)c12 [3-Amino-6-(4-chlor-phenyl)-4-methyl-thieno[2,3-b]pyridin-2-carbonsäureamid]
CSc1ccc(-c2cc(C(F)(F)F)c3c(N)c(C(N)=O)sc3n2)cc1 [3-Amino-6-(4-methylthio-phenyl)-4-trifluormethyl-thieno[2,3-b]pyridin-2-carbonsäureamid]
Cc1cccc(-c2cc(C)c3c(N)c(C(N)=O)sc3n2)c1 [Beispiel 2, 3-Amino-4-methyl-6-(3-methyl-phenyl)-thieno[2,3-b]pyridin-2-carbonsäureamid]
Cc1ccc(-c2cc(C)c3c(N)c(C(N)=O)sc3n2)cc1 [Beispiel 3, 3-Amino-4-methyl-6-(4-methyl-phenyl)-thieno[2,3-b]pyridin-2-carbonsäureamid]
COc1ccc(-c2cc(C)c3c(N)c(C(N)=O)sc3n2)cc1 [Beispiel 4, 3-Amino-4-methyl-6-(4-methoxy-phenyl)-thieno[2,3-b]pyridin-2-carbonsäureamid]
Cc1cc(-c2ccc(F)cc2)nc2sc(C(N)=O)c(N)c12 [Beispiel 6, 3-Amino-6-(4-fluor-phenyl)-4-methyl-thieno[2,3-b]pyridin-2-carbonsäureamid]
Cc1cc(-c2ccc(Br)cc2)nc2sc(C(N)=O)c(N)c12 [Beispiel 7, 3-Amino-6-(4-brom-phenyl)-4-methyl-thieno[2,3-b]pyridin-2-carbonsäureamid]
Cc1cc(-c2ccccc2)nc2sc(C(N)=O)c(N)c12 [Beispiel 8, 3-Amino-4-methyl-6-phenyl-thieno[2,3-b]pyridin-2-carbonsäureamid]
Cc1cc(-c2ccc3c(c2)OCO3)nc2sc(C(N)=O)c(N)c12 [Beispiel 9, 3-Amino-6-(3,4-dioxomethylen-phenyl)-4-methyl-thieno[2,3-b]pyridin-2-carbonsäureamid]
Cc1cc(-c2cccs2)nc2sc(C(N)=O)c(N)c12 [Beispiel 10, 3-Amino-4-methyl-6-(2-thienyl)-thieno[2,3-b]pyridin-2-carbonsäureamid]
Cc1ccc(-c2cc(C(F)F)c3c(N)c(C(N)=O)sc3n2)cc1 [Beispiel 11, 3-Amino-4-difluormethyl-6-(4-methyl-phenyl)-thieno[2,3-b]pyridin-2-carbonsäureamid]
CC(C)c1ccc(-c2cc(C(F)(F)F)c3c(N)c(C(N)=O)sc3n2)cc1 [Beispiel 12, 3-Amino-6-(4-isopropyl-phenyl)-4-trifluormethyl-thieno[2,3-b]pyridin-2-carbonsäureamid]
NC(=O)c1sc2nc(-c3ccccc3)cc(C(F)(F)F)c2c1N [Beispiel 13, 3-Amino-6-phenyl-4-trifluormethyl-thieno[2,3-b]pyridin-2-carbonsäureamid]
Cc1ccc(-c2cc(C(F)(F)F)c3c(N)c(C(N)=O)sc3n2)cc1 [Beispiel 14, 3-Amino-6-(4-methyl-phenyl)-4-trifluormethyl-thieno[2,3-b]pyridin-2-carbonsäureamid]
CCc1ccc(-c2cc(C(F)(F)F)c3c(N)c(C(N)=O)sc3n2)cc1 [Beispiel 15, 3-Amino-6-(4-ethyl-phenyl)-4-trifluormethyl-thieno[2,3-b]pyridin-2-carbonsäureamid]
CCCc1ccc(-c2cc(C(F)(F)F)c3c(N)c(C(N)=O)sc3n2)cc1 [Beispiel 16, 3-Amino-6-(4-propyl-phenyl)-4-trifluormethyl-thieno[2,3-b]pyridin-2-carbonsäureamid]
Cc1ccc(-c2cc(C(F)(F)F)c3c(N)c(C(N)=O)sc3n2)cc1C [Beispiel 18, 3-Amino-6-(3,4-dimethyl-phenyl)-4-trifluormethyl-thieno[2,3-b]pyridin-2-carbonsäureamid]
COc1ccc(-c2cc(C(F)(F)F)c3c(N)c(C(N)=O)sc3n2)cc1 [Beispiel 19, 3-Amino-6-(4-methoxy-phenyl)-4-trifluormethyl-thieno[2,3-b]pyridin-2-carbonsäureamid]
CCOc1ccc(-c2cc(C(F)(F)F)c3c(N)c(C(N)=O)sc3n2)cc1 [Beispiel 20, 3-Amino-6-(4-ethoxy-phenyl)-4-trifluormethyl-thieno[2,3-b]pyridin-2-carbonsäureamid]
NC(=O)c1sc2nc(-c3ccc(F)cc3)cc(C(F)(F)F)c2c1N [Beispiel 21, 3-Amino-6-(4-fluor-phenyl)-4-trifluormethyl-thieno[2,3-b]pyridin-2-carbonsäureamid]
NC(=O)c1sc2nc(-c3ccc(Cl)cc3)cc(C(F)(F)F)c2c1N [Beispiel 22, 3-Amino-6-(4-chlor-phenyl)-4-trifluormethyl-thieno[2,3-b]pyridin-2-carbonsäureamid]
NC(=O)c1sc2nc(-c3ccc(Br)cc3)cc(C(F)(F)F)c2c1N [Beispiel 23, 3-Amino-6-(4-brom-phenyl)-4-trifluormethyl-thieno[2,3-b]pyridin-2-carbonsäureamid]
NC(=O)c1sc2nc(-c3ccc4ccccc4c3)cc(C(F)(F)F)c2c1N [Beispiel 25, 3-Amino-6-(2-naphthyl)-4-trifluormethyl-thieno[2,3-b]pyridin-2-carbonsäureamid]
NC(=O)c1sc2nc(-c3ccc4c(c3)OCO4)cc(C(F)(F)F)c2c1N [Beispiel 26, 3-Amino-6-(3,4-dioxomethylen-phenyl)-4-trifluormethyl-thieno[2,3-b]pyridin-2-carbonsäureamid]
CCc1cc(-c2ccc(C)cc2)nc2sc(C(N)=O)c(N)c12 [Beispiel 27, 3-Amino-4-ethyl-6-(4-methyl-phenyl)-thieno[2,3-b]pyridin-2-carbonsäureamid]
CCc1cc(-c2ccc(Cl)cc2)nc2sc(C(N)=O)c(N)c12 [Beispiel 30, 3-Amino-6-(4-chlor-phenyl)-4-ethyl-thieno[2,3-b]pyridin-2-carbonsäureamid]
CCc1cc(-c2ccc(SC)cc2)nc2sc(C(N)=O)c(N)c12 [Beispiel 31, 3-Amino-4-ethyl-6-(4-methylthio-phenyl)-thieno[2,3-b]pyridin-2-carbonsäureamid]
